Measured values from PubChem BioAssay AID1982 (Sanford-Burnham Center for Chemical Genomics, 2009).
The source made the active and inactive calls. No rule for the calls is given here.

Columns and labels:
Assay in all cases: kinase panel binding selectivity, selectivity assay, biochemical, KINOMEscan (AID 1982)
[1] = tested on: TNNI3K; settings: KINOMEscan 353-kinase binding panel, qPCR, at 10 µM, hits give low values
[2] = molecular target: Receptor tyrosine-protein kinase erbB-4 (Homo sapiens) (UniProt Q15303); settings: KINOMEscan 353-kinase binding panel, qPCR; ERBB4; at 10 µM; hits give low values
[3] = tested on: EPHB4; settings: KINOMEscan 353-kinase binding panel, qPCR, at 10 µM, hits give low values
[4] = tested on: PKMYT1; settings: KINOMEscan 353-kinase binding panel, qPCR, at 10 µM, hits give low values
[5] = tested on: MEK3; settings: KINOMEscan 353-kinase binding panel, qPCR, at 10 µM, hits give low values
[6] = molecular target: Mitogen-activated protein kinase 1 (Homo sapiens) (UniProt P28482); settings: KINOMEscan 353-kinase binding panel, qPCR; ERK2; at 10 µM; hits give low values
Sequence of Mitogen-activated protein kinase 1 (Homo sapiens) (P28482 whole entry, looked up): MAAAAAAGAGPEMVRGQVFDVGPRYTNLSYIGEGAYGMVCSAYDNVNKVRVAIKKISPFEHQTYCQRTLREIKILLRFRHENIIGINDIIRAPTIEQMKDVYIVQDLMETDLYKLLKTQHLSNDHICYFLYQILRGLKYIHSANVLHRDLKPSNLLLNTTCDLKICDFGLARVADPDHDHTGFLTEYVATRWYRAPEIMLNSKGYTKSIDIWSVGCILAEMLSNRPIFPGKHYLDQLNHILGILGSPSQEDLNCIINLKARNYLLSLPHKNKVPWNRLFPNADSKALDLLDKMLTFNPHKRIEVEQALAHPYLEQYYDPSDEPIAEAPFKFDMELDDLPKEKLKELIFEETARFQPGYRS

[7] = tested on: p38-beta; settings: KINOMEscan 353-kinase binding panel, qPCR, at 10 µM, hits give low values
[8] = tested on: MRCKB; settings: KINOMEscan 353-kinase binding panel, qPCR, at 10 µM, hits give low values
[9] = tested on: EPHA3; settings: KINOMEscan 353-kinase binding panel, qPCR, at 10 µM, hits give low values
[10] = tested on: PAK2; settings: KINOMEscan 353-kinase binding panel, qPCR, at 10 µM, hits give low values
[11] = molecular target: Mitogen-activated protein kinase kinase kinase 5 (Homo sapiens) (UniProt Q99683); settings: KINOMEscan 353-kinase binding panel, qPCR; MAP3K5; at 10 µM; hits give low values
[12] = molecular target: Mitogen-activated protein kinase 12 (Homo sapiens) (UniProt P53778); settings: KINOMEscan 353-kinase binding panel, qPCR; p38-gamma; at 10 µM; hits give low values
Sequence of Mitogen-activated protein kinase 12 (Homo sapiens) (P53778 whole entry, looked up): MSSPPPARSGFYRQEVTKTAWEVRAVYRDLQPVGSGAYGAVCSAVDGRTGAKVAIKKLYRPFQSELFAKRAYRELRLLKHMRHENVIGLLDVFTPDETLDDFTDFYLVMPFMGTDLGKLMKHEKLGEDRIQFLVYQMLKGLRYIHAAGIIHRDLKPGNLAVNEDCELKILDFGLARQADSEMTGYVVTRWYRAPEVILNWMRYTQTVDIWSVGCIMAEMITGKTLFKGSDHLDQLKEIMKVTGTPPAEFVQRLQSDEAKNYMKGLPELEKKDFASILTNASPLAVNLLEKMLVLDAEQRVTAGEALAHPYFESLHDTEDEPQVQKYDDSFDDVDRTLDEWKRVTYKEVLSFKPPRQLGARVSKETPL

[13] = molecular target: Receptor tyrosine-protein kinase erbB-2 (Homo sapiens) (UniProt P04626); settings: KINOMEscan 353-kinase binding panel, qPCR; ERBB2; at 10 µM; hits give low values
[14] = molecular target: Serine/threonine-protein kinase N2 (Homo sapiens) (UniProt Q16513); settings: KINOMEscan 353-kinase binding panel, qPCR; PKN2; at 10 µM; hits give low values
[15] = tested on: YSK1; settings: KINOMEscan 353-kinase binding panel, qPCR, at 10 µM, hits give low values
[16] = tested on: MAP4K3; settings: KINOMEscan 353-kinase binding panel, qPCR, at 10 µM, hits give low values
[17] = tested on: DAPK1; settings: KINOMEscan 353-kinase binding panel, qPCR, at 10 µM, hits give low values
[18] = tested on: INSRR; settings: KINOMEscan 353-kinase binding panel, qPCR, at 10 µM, hits give low values
[19] = molecular target: Insulin receptor (Homo sapiens) (UniProt P06213); settings: KINOMEscan 353-kinase binding panel, qPCR; INSR; at 10 µM; hits give low values
[20] = tested on: AAK1; settings: KINOMEscan 353-kinase binding panel, qPCR, at 10 µM, hits give low values
[21] = tested on: RIPK2; settings: KINOMEscan 353-kinase binding panel, qPCR, at 10 µM, hits give low values
[22] = tested on: MYO3B; settings: KINOMEscan 353-kinase binding panel, qPCR, at 10 µM, hits give low values
[23] = molecular target: SRSF protein kinase 1 (Homo sapiens) (UniProt Q96SB4); settings: KINOMEscan 353-kinase binding panel, qPCR; SRPK1; at 10 µM; hits give low values
[24] = tested on: TIE2; settings: KINOMEscan 353-kinase binding panel, qPCR, at 10 µM, hits give low values
[25] = molecular target: Mitogen-activated protein kinase kinase kinase 10 (Homo sapiens) (UniProt Q02779); settings: KINOMEscan 353-kinase binding panel, qPCR; MLK2; at 10 µM; hits give low values
Sequence of Mitogen-activated protein kinase kinase kinase 10 (Homo sapiens) (Q02779 whole entry, looked up, canonical isoform): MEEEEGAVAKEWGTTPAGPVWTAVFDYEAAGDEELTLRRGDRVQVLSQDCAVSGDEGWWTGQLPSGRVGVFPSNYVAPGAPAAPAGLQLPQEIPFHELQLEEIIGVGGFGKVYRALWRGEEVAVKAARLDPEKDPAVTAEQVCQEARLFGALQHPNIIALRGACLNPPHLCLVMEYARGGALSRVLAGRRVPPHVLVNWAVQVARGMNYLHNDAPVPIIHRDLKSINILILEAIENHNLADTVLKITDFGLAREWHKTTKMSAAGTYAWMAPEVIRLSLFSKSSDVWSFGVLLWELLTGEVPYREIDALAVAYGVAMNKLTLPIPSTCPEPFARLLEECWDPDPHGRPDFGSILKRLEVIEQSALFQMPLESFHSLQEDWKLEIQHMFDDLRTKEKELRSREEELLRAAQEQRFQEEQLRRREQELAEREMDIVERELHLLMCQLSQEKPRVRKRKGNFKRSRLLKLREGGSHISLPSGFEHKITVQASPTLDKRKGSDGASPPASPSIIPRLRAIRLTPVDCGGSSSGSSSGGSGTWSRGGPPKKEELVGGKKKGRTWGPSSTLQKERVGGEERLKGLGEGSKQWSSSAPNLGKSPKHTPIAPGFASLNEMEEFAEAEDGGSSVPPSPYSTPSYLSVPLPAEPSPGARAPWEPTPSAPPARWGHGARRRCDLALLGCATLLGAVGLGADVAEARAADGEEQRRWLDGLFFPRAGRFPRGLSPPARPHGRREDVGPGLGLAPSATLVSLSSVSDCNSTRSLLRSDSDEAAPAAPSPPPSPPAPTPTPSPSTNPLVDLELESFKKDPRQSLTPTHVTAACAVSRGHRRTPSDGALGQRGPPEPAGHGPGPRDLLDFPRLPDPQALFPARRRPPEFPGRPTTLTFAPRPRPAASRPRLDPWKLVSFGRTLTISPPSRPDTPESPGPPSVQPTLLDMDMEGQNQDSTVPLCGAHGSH

[26] = molecular target: Casein kinase I isoform gamma-1 (Homo sapiens) (UniProt Q9HCP0); settings: KINOMEscan 353-kinase binding panel, qPCR; CSNK1G1; at 10 µM; hits give low values
Sequence of Casein kinase I isoform gamma-1 (Homo sapiens) (Q9HCP0 whole entry, looked up, canonical isoform): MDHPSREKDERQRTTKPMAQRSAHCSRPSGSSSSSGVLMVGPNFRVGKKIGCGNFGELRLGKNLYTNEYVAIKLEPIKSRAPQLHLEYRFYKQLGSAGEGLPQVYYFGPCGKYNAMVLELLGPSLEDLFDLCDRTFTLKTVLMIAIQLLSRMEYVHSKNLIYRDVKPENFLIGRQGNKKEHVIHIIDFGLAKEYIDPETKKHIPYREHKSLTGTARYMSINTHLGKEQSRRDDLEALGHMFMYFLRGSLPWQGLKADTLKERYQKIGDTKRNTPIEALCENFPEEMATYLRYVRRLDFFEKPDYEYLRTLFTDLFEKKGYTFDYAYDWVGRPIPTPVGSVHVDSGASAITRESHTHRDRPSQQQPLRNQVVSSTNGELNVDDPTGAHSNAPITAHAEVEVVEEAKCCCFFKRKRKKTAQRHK

[27] = molecular target: Mast/stem cell growth factor receptor Kit (Homo sapiens) (UniProt P10721); settings: KINOMEscan 353-kinase binding panel, qPCR, at 10 µM, hits give low values
Sequence of Mast/stem cell growth factor receptor Kit (Homo sapiens) (P10721 whole entry, looked up): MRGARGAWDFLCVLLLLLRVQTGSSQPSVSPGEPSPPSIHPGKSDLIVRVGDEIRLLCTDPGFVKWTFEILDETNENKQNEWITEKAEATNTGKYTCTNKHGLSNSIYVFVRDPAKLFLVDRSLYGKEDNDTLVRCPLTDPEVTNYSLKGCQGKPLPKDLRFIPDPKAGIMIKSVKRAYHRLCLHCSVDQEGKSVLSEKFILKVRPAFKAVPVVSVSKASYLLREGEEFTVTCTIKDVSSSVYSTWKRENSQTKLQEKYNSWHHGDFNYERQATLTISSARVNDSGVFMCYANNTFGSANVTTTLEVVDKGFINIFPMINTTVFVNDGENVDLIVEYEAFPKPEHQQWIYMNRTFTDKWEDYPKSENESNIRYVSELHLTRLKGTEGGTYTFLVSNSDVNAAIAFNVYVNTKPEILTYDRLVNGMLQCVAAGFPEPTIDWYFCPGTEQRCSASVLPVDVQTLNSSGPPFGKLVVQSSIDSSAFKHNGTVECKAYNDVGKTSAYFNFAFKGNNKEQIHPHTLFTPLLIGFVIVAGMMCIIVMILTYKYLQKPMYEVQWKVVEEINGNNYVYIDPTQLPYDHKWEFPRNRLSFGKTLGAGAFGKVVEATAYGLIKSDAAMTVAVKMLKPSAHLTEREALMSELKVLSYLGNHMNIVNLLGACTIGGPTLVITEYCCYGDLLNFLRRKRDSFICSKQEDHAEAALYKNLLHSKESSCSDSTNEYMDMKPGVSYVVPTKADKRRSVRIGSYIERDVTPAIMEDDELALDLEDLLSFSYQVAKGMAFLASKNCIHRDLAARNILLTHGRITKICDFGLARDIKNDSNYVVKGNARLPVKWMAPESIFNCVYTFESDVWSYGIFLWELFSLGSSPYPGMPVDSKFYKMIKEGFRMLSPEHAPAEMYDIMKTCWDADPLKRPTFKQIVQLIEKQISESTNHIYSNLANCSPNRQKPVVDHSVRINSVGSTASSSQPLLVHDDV

[28] = tested on: PRKCE; settings: KINOMEscan 353-kinase binding panel, qPCR, at 10 µM, hits give low values
[29] = tested on: TNK1; settings: KINOMEscan 353-kinase binding panel, qPCR, at 10 µM, hits give low values
[30] = tested on: IRAK3; settings: KINOMEscan 353-kinase binding panel, qPCR, at 10 µM, hits give low values
[31] = tested on: MAP3K3; settings: KINOMEscan 353-kinase binding panel, qPCR, at 10 µM, hits give low values
[32] = molecular target: Tyrosine-protein kinase Fes/Fps (Homo sapiens) (UniProt P07332); settings: KINOMEscan 353-kinase binding panel, qPCR, at 10 µM, hits give low values
[33] = tested on: RIPK4; settings: KINOMEscan 353-kinase binding panel, qPCR, at 10 µM, hits give low values
[34] = tested on: ADCK3; settings: KINOMEscan 353-kinase binding panel, qPCR, at 10 µM, hits give low values
[35] = tested on: PAK3; settings: KINOMEscan 353-kinase binding panel, qPCR, at 10 µM, hits give low values
[36] = tested on: BRSK2; settings: KINOMEscan 353-kinase binding panel, qPCR, at 10 µM, hits give low values
[37] = molecular target: Macrophage-stimulating protein receptor (Homo sapiens) (UniProt Q04912); settings: KINOMEscan 353-kinase binding panel, qPCR; MST1R; at 10 µM; hits give low values
Sequence of Macrophage-stimulating protein receptor (Homo sapiens) (Q04912 whole entry, looked up): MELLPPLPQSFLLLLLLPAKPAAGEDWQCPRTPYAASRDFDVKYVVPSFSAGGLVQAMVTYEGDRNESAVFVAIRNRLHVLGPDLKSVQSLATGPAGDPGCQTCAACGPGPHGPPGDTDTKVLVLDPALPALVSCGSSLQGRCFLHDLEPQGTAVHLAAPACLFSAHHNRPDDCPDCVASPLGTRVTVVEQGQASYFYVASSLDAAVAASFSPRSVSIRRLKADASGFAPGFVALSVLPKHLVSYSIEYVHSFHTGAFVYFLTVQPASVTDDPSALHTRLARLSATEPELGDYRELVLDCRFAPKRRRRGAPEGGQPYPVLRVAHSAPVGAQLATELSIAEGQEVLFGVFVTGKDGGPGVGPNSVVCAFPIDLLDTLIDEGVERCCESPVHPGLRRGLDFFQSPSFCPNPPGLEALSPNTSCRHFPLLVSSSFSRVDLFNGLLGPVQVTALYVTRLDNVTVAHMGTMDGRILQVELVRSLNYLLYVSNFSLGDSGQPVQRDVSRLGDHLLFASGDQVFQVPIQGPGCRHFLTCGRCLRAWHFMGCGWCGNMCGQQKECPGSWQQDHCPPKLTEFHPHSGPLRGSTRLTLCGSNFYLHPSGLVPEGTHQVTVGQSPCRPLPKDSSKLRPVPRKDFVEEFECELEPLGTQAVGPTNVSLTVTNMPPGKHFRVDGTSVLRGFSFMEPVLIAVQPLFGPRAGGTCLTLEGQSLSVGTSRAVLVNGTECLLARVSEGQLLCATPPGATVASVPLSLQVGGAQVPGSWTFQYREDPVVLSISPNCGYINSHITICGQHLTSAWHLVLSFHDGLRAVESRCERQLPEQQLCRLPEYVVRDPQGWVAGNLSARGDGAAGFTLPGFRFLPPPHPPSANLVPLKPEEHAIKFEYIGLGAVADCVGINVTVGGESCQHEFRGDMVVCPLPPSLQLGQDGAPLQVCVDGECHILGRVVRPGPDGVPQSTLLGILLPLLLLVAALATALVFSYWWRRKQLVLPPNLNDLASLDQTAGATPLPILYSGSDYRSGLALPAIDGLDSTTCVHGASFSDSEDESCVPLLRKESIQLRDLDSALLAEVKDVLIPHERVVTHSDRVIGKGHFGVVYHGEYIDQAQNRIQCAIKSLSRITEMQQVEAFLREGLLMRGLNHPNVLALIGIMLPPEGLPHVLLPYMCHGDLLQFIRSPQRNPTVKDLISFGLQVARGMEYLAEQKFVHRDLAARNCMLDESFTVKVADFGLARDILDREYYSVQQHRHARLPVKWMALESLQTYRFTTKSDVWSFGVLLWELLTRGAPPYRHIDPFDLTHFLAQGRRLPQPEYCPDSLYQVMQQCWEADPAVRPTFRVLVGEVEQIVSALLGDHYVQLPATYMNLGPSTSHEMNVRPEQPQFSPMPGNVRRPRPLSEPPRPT

[38] = tested on: LOK; settings: KINOMEscan 353-kinase binding panel, qPCR, at 10 µM, hits give low values

Measured: percent of control binding

Cc1cc2nc(NCCCO)n(CC(=O)c3cc(C(C)(C)C)c(O)c(C(C)(C)C)c3)c2cc1C
inactive: [1] 82% | [2] 100% | [3] 98% | [4] 100% | [5] 100% | [6] 89% | [7] 100% | [8] 100% | [9] 84% | [10] 84% | [11] 100% | [12] 95% | [13] 100% | [14] 100% | [15] 84% | [16] 100% | [17] 87% | [18] 100% | [19] 94% | [20] 100% | [21] 83% | [22] 65% | [23] 100% | [24] 100% | [25] 100% | [26] 91% | [27] 92% | [27]; KIT(D816V) 90% | [27]; KIT(V559D) 95% | [27]; KIT(V559D,T670I) 94% | [27]; KIT(V559D,V654A) 92% | [28] 64% | [29] 80% | [30] 100% | [31] 82% | [32] 99% | [33] 89% | [34] 72% | [35] 79% | [36] 100% | [37] 100% | [38] 95%
